Data published in patent US20030040540A1, “Bromonitrothienyldioxanes” (priority 2001, published 2003).
Values after ≈ are worked out from the molar mass of the structure shown.

Tests used:
Pseudomonas aeroginosa = test: MIC against bacteria on Landy agar (Use Example A); assay type: cell-based; conditions: 3 days at 28° C., 60 to 70% relative atmospheric humidity, no colonization whatsoever; for MIC: Pseudomonas, 72 h, read-out: Minimum inhibitory concentrations Pseudomonas aeroginosa
Procedure: (§1) The MIC was determined after 3 days of storage at 28° C. and 60 to 70% relative atmospheric humidity.

Chaetomium globusum = test: MIC against fungi on malt extract agar (Use Example B); assay type: cell-based; conditions: 2 weeks at 28° C., 60 to 70% relative atmospheric humidity, no colonization whatsoever; for MIC: Chaetomium, 336 h, read-out: Minimum inhibitory concentrations Chaetomium globusum
Procedure: (§2) The MIC was determined after 2 weeks of storage at 28° C. and 60 to 70% relative atmospheric humidity.

Aspergillus niger = test: as above; assay type: cell-based; conditions: 2 weeks at 28° C., 60 to 70% relative atmospheric humidity, no colonization whatsoever; for MIC: Aspergillus niger, 336 h, read-out: Minimum inhibitory concentrations Aspergillus niger
Procedure: as §2

Bacillus subtilis = test: MIC against bacteria on Landy agar (Use Example A); assay type: cell-based; conditions: 3 days at 28° C., 60 to 70% relative atmospheric humidity, no colonization whatsoever; for MIC: Bacillus subtilis, 72 h, read-out: Minimum inhibitory concentrations Bacillus subtilis
Procedure: as §1

Penicillium brevicaule = test: MIC against fungi on malt extract agar (Use Example B); assay type: cell-based; conditions: 2 weeks at 28° C., 60 to 70% relative atmospheric humidity, no colonization whatsoever; for MIC: Penicillium, 336 h, read-out: Minimum inhibitory concentrations Penicillium brevicaule
Procedure: as §2

SMILES | MIC (Pseudomonas aeroginosa) | MIC (Chaetomium globusum) | MIC (Aspergillus niger) | MIC (Bacillus subtilis) | MIC (Penicillium brevicaule) | melting point | Minimum inhibitory concentrations Chaetomium globusum (Chaetomium globusum) | Minimum inhibitory concentrations Aspergillus niger (Aspergillus niger) | Minimum inhibitory concentrations Penicillium brevicaule (Penicillium brevicaule) | Minimum inhibitory concentrations Bacillus subtilis (Bacillus subtilis) | Minimum inhibitory concentrations Pseudomonas aeroginosa (Pseudomonas aeroginosa)
O=[N+]([O-])C1(Br)COCOC1 [5-bromo-5-nitro-1,3-dioxane, reference compound] | 750 µg/mL (≈ 3540 µM) | 500 µg/mL (≈ 2360 µM) | 1000 µg/mL (≈ 4720 µM) |  |  |  |  |  |  |  | 
O=[N+]([O-])C1(Br)COC(c2cccs2)OC1 (stereo not shown) [Example 1, 5-bromo-5-nitro-2-(2-thienyl)-1,3-dioxane] | 100 µg/mL (≈ 340 µM) | 100 µg/mL (≈ 340 µM) | 200 µg/mL (≈ 680 µM) | < 40 µg/mL | < 40 µg/mL |  |  |  |  |  | 
O=[N+]([O-])C1(Br)COC(c2ccc(Cl)s2)OC1 (stereo not shown) [Example 2, 5-bromo-2-(5-chloro-2-thienyl)-5-nitro-1,3-dioxane] | 100 µg/mL (≈ 304 µM) | < 40 µg/mL | 100 µg/mL (≈ 304 µM) | < 40 µg/mL | < 40 µg/mL | 55 to 57 °C |  |  |  |  | 
O=[N+]([O-])C1(Br)COC(c2ccc(Br)s2)OC1 (stereo not shown) [Example 3] |  |  |  |  |  |  | 100 ppm | 200 ppm | <40 ppm |  | 
Cc1ccc(C2OCC(Br)([N+](=O)[O-])CO2)s1 (stereo not shown) [Example 4] |  |  |  |  |  |  | 100 ppm | 200 ppm | <40 ppm |  | 
Cc1ccsc1C1OCC(Br)([N+](=O)[O-])CO1 (stereo not shown) [Example 5] |  |  |  |  |  |  | <40 ppm | 200 ppm | <40 ppm |  | 
O=[N+]([O-])c1ccc(C2OCC(Br)([N+](=O)[O-])CO2)s1 (stereo not shown) [Example 7] |  |  |  |  |  |  | 100 ppm | 200 ppm | <40 ppm | <40 ppm | 200 ppm
O=[N+]([O-])c1sc(C2OCC(Br)([N+](=O)[O-])CO2)cc1Br (stereo not shown) [Example 8] |  |  |  |  |  |  | 400 ppm | >400 ppm | 200 ppm |  | 
